Where “and” joins values, the source holds several entries; their conditions need not be identical. Equal entries are not always repeated. Toxic doses and inconclusive results are not listed.
Tested on: BDF1 mice, B16 melanoma ip, median survival T/C
Experiment: NCI In Vivo Anticancer Drug Screen. Data for tumor model B16 Melanoma (intraperitoneal) in B6D2F1 (BDF1) mice
Settings: endpoint: median survival time, higher = longer survival
Method: The antitumor activity of compounds was measured in mice bearing transplantable tumors. Survival or tumor size were measured and the results are expressed as the measurement made in the treated group (T) divided by the measurement made in the vehicle treated control group (C). The tumor model used in this assay is B16 Melanoma (intraperitoneal) in B6D2F1 (BDF1) mice

[1] = dose: 100.0 mg/kg/injection, schedule: Q01DX009 (ip), vehicle: Klucel (hydroxypropylcellulose) (HPC)
[2] = dose: 200.0 mg/kg/injection, schedule: Q01DX009 (ip), vehicle: Klucel (hydroxypropylcellulose) (HPC)
[3] = dose: 400.0 mg/kg/injection, schedule: Q01DX009 (ip), vehicle: Klucel (hydroxypropylcellulose) (HPC)
[4] = dose: 100.0 mg/kg/injection, schedule: Q04DX003 (ip), vehicle: Klucel (hydroxypropylcellulose) (HPC)
[5] = dose: 200.0 mg/kg/injection, schedule: Q04DX003 (ip), vehicle: Klucel (hydroxypropylcellulose) (HPC)
[6] = dose: 400.0 mg/kg/injection, schedule: Q04DX003 (ip), vehicle: Klucel (hydroxypropylcellulose) (HPC)
[7] = dose: 100.0 mg/kg/injection, schedule: Q01DX009 (ip), vehicle: saline
[8] = dose: 200.0 mg/kg/injection, schedule: Q01DX009 (ip), vehicle: saline
[9] = dose: 25.0 mg/kg/injection, schedule: Q01DX009 (ip), vehicle: saline with Tween-80
[10] = dose: 50.0 mg/kg/injection, schedule: Q01DX009 (ip), vehicle: saline with Tween-80
[11] = dose: 100.0 mg/kg/injection, schedule: Q01DX009 (ip), vehicle: saline with Tween-80
[12] = dose: 25.0 mg/kg/injection, schedule: Q01DX009 (ip), vehicle: Klucel (hydroxypropylcellulose) (HPC)
[13] = dose: 50.0 mg/kg/injection, schedule: Q01DX009 (ip), vehicle: Klucel (hydroxypropylcellulose) (HPC)
[14] = dose: 6.25 mg/kg/injection, schedule: Q01DX009 (ip), vehicle: Klucel (hydroxypropylcellulose) (HPC)
[15] = dose: 12.5 mg/kg/injection, schedule: Q01DX009 (ip), vehicle: Klucel (hydroxypropylcellulose) (HPC)
[16] = dose: 25.0 mg/kg/injection, schedule: Q01DX009 (ip), vehicle: saline
[17] = dose: 50.0 mg/kg/injection, schedule: Q01DX009 (ip), vehicle: saline

In the case of `CC(=O)Nc1ccc2c(c1)Cc1cc(NC=O)ccc1-2`, the T/C (dose: 0.75 mg/kg/injection, schedule: Q01DX009 (ip), vehicle: Klucel (hydroxypropylcellulose) (HPC)) was 88 % of control, the T/C (dose: 1.5 mg/kg/injection, schedule: Q01DX009 (ip), vehicle: Klucel (hydroxypropylcellulose) (HPC)) was 93 % of control and the T/C (dose: 3.0 mg/kg/injection, schedule: Q01DX009 (ip), vehicle: Klucel (hydroxypropylcellulose) (HPC)) was 90 % of control.

With `Cc1ccc(Nc2ccc([N+](=O)[O-])cc2[N+](=O)[O-])cc1C` the T/C [1] was 98 % of control, the T/C [2] was 97 % of control and the T/C [3] was 96 % of control.

For `OCC1OC(n2cnc3c(SCc4ccccc4)ncnc32)C(O)C1O` (configuration not stated), the T/C (dose: 37.5 mg/kg/injection, schedule: Q01DX009 (ip), vehicle: saline with Tween-80) was 121 % of control.

With `CCCCN(CCCC)/N=C\C1=C2NC(=O)/C(C)=C\C=C/C(OC)C(OC(N)=O)/C(C)=C/C(C)C(O)C(OC)CC(C)CC(=C(OC)C1=O)C2=O` (configuration not stated) the T/C (dose: 12.5 mg/kg/injection, schedule: Q01DX005 (ip), vehicle: other) was 103 % of control, the T/C (dose: 25.0 mg/kg/injection, schedule: Q01DX005 (ip), vehicle: other) was 94 % of control and the T/C (dose: 50.0 mg/kg/injection, schedule: Q01DX005 (ip), vehicle: other) was 90 % of control. The T/C (dose: 100.0 mg/kg/injection, schedule: Q01DX005 (ip), vehicle: other) was 95 % of control and the T/C (dose: 200.0 mg/kg/injection, schedule: Q01DX005 (ip), vehicle: other) was 93 % of control.

For `Cc1cccc(NC(=O)NC(C)C)c1C`, the T/C [1] was 100 % of control, the T/C [4] was 103 % of control and the T/C [2] was 96 % of control. For the same compound, the T/C [5] was 107 % of control, the T/C [3] was 93 % of control and the T/C [6] was 100 % of control.

For `Cn1c(=O)c2c(ncn2CCO)n(C)c1=O`, the T/C [7] was 120 % of control and the T/C [8] was 122 % of control.

For `COC1C(O)C(C)OC(OC2C(Oc3cccc4c(O)c5c(=O)oc6ccc(C)c7c(=O)oc(c34)c5c67)OC(C)C(O)C2O)C1O` (configuration not stated), the T/C (dose: 16.0 mg/kg/injection, schedule: Q04DX003 (ip), vehicle: saline with Tween-80) was 107 % of control, the T/C [9] was 183 % of control and the T/C (dose: 32.0 mg/kg/injection, schedule: Q04DX003 (ip), vehicle: saline with Tween-80) was 101 % of control. For the same compound, the T/C (dose: 50.0 mg/kg/injection, schedule: Q01DX009 (ip), vehicle: carboxymethylcellulose (CMC)) was 179 % of control, the T/C [10] was 199 % of control and the T/C (dose: 64.0 mg/kg/injection, schedule: Q04DX003 (ip), vehicle: saline with Tween-80) was 122 % of control. For the same compound, the T/C [1] was 119 % of control, the T/C (dose: 100.0 mg/kg/injection, schedule: Q01DX009 (ip), vehicle: carboxymethylcellulose (CMC)) was 206 % of control and the T/C [11] was 185 % of control. The T/C (dose: 128.0 mg/kg/injection, schedule: Q04DX003 (ip), vehicle: saline with Tween-80) was 119 % of control.

For `COc1cc2ccc3c[n+](C)ccc3c2cc1OC`, the T/C (dose: 12.5 mg/kg/injection, schedule: Q01DX009 (ip), vehicle: water) was 101 % of control, the T/C (dose: 25.0 mg/kg/injection, schedule: Q01DX009 (ip), vehicle: water) was 106 % of control and the T/C (dose: 50.0 mg/kg/injection, schedule: Q01DX009 (ip), vehicle: water) was 95 % of control. The T/C (dose: 100.0 mg/kg/injection, schedule: Q01DX009 (ip), vehicle: water) was 101 % of control.

With `CNC(=O)c1cccc2c(Nc3ccc(NS(C)(=O)=O)cc3OC)c3cccc(C)c3nc12` the T/C (dose: 1.5 mg/kg/injection, schedule: Q01DX009 (ip), vehicle: water) was 162 % of control and the T/C (dose: 3.0 mg/kg/injection, schedule: Q01DX009 (ip), vehicle: water) was 201 % of control.

In the case of `[Cu+2].[NH-]C(CC(=O)O)C(=O)O.[NH-]C(CC(=O)O)C(=O)O` (configuration not stated), the T/C (dose: 4.68 mg/kg/injection, schedule: Q01DX009 (ip), vehicle: saline) was 98 % of control and the T/C (dose: 9.37 mg/kg/injection, schedule: Q01DX009 (ip), vehicle: saline) was 101 % of control.

`COc1cc(C(C)c2cc3c(cc2OCCO)OCO3)cc(OC)c1OC` (configuration not stated) was tested, and the T/C [9] was 107 % of control, the T/C [10] was 104 % of control and the T/C [11] was 110 % of control. For the same compound, the T/C (dose: 200.0 mg/kg/injection, schedule: Q01DX009 (ip), vehicle: saline with Tween-80) was 112 % of control.

With `O=C(NC(CSC(c1ccccc1)c1ccccc1)C(=O)O)OCc1ccccc1` (configuration not stated) the T/C [12] was 100 % of control and the T/C [13] was 100 % of control.

With `O=C(/C=C/C(=O)Oc1c(Cl)cc(Cl)cc1Cl)Oc1c(Cl)cc(Cl)cc1Cl` the T/C [4] was 95 % of control, the T/C [5] was 92 % of control and the T/C [6] was 95 % of control.

In the case of `Cc1cc(=O)n2c3c(c(N)ccc13)OC2`, the T/C [1] was 100 % of control and the T/C [2] was 92 % of control.

For `Cc1ccc(S(=O)(=O)N(CCCCN(S(=O)(=O)c2ccc(C)cc2)S(=O)(=O)c2ccc(C)cc2)S(=O)(=O)c2ccc(C)cc2)cc1`, the T/C [4] was 95 % of control and the T/C [6] was 112 % of control.

With `O=C(/C=C/c1ccncc1)c1ccccc1` the T/C (dose: 12.5 mg/kg/injection, schedule: Q04DX003 (ip), vehicle: Klucel (hydroxypropylcellulose) (HPC)) was 93 % of control, the T/C (dose: 25.0 mg/kg/injection, schedule: Q04DX003 (ip), vehicle: Klucel (hydroxypropylcellulose) (HPC)) was 110 % of control and the T/C (dose: 50.0 mg/kg/injection, schedule: Q04DX003 (ip), vehicle: Klucel (hydroxypropylcellulose) (HPC)) was 103 % of control. For the same compound, the T/C [4] was 99 % of control.

`CC(=O)NC(C=O)C(O)C(O)C(O)C(=O)O` (configuration not stated) (tested in a mixture with another compound) was tested, and the T/C [14] was 100 % of control, the T/C [15] was 107 % of control and the T/C [12] was 98 % of control.

For `COC(=O)C(c1ccccc1)C1CCCCN1` (configuration not stated), the T/C (dose: 3.12 mg/kg/injection, schedule: Q01DX009 (ip), vehicle: saline) was 97 % of control, the T/C (dose: 6.25 mg/kg/injection, schedule: Q01DX009 (ip), vehicle: saline) was 100 % of control and the T/C (dose: 12.5 mg/kg/injection, schedule: Q01DX009 (ip), vehicle: saline) was 88 % of control. For the same compound, the T/C [16] was 88 % of control and the T/C [17] was 97 % of control.

For `C[C@H]1C(=O)O[C@@H]2CCN3CC=C(COC(=O)[C@](C)(O)[C@@]1(C)O)[C@H]23`, the T/C [16] was 123 % of control.

For `OC(CCN1CCCCC1)(c1ccccc1)C1CC2C=CC1C2` (configuration not stated), the T/C (dose: 0.19 mg/kg/injection, schedule: Q01DX009 (ip), vehicle: Klucel (hydroxypropylcellulose) (HPC)) was 96 % of control, the T/C (dose: 0.39 mg/kg/injection, schedule: Q01DX009 (ip), vehicle: Klucel (hydroxypropylcellulose) (HPC)) was 100 % of control and the T/C (dose: 0.78 mg/kg/injection, schedule: Q01DX009 (ip), vehicle: Klucel (hydroxypropylcellulose) (HPC)) was 103 % of control. The T/C (dose: 1.56 mg/kg/injection, schedule: Q01DX009 (ip), vehicle: Klucel (hydroxypropylcellulose) (HPC)) was 100 % of control, the T/C (dose: 3.12 mg/kg/injection, schedule: Q01DX009 (ip), vehicle: Klucel (hydroxypropylcellulose) (HPC)) was 115 % of control and the T/C [14] was 94 % of control. The T/C [15] was 92 % of control and 96 % of control and the T/C [1] was 89 % of control.

`COC(=O)C(Cc1c[nH]c2ccccc12)NC(=O)C(NC(=O)OC(C)(C)C)C(C)C` (configuration not stated) was tested, and the T/C [13] was 91 % of control.

For `O=P(N1CC1)(N1CC1)N1CC1`, the T/C (dose: 0.75 mg/kg/injection, schedule: Q01DX009 (ip), vehicle: saline with Tween-80) was 120 % of control, the T/C (dose: 1.0 mg/kg/injection, schedule: Q01DX009 (ip), vehicle: saline) was 110 % of control and the T/C (dose: 2.0 mg/kg/injection, schedule: Q01DX009 (ip), vehicle: saline) was 120 % of control.

With `CC(C)=CCC/C(C)=C/CNCCc1c[nH]c2ccccc12` the T/C [14] was 107 % of control and the T/C [15] was 111 % of control.

With `C/C=C(/C)C(=O)O[C@H]1CC[N+]2([O-])CC=C(COC(=O)[C@@](O)([C@H](C)OC)C(C)(C)O)[C@H]12` (some centres not stated) the T/C [16] was 95 % of control, the T/C [17] was 97 % of control and the T/C [7] was 107 % of control. For the same compound, the T/C [8] was 100 % of control.

Reference: PubChem BioAssay AID192 (DTP/NCI, 2004)
